From patent US9545385B2, “Inhibitors of hemeprotein-catalyzed lipid peroxidation” (VANDERBILT UNIVERSITY, priority 2013, dated 2017)
Blank lines part the entries; values can stand above or below the compound they belong to.

Experiments:
[1] = Direct cellular toxicity (total cellular ATP levels); assay type: cell-based; conditions: human, HepG2 cells, read-out: Cellular Toxicity (EC50, μM ± SD)
From the text: Values represent means±S.E.M.

Microsomal stability = conditions: % of unmodified compound remaining after reaction; human liver microsomes
COX-1 = COX-1 (Homo sapiens, UniProt P23219); experiment: Inhibition of COX-1-catalyzed oxidation of arachidonic acid (Example 6); assay type: biochemical
Protocol: (§1) The inhibition of the lipid peroxidation produced by myoglobin (Mb) and COX-1 by the different analogs was tested. Values represent the IC50 for each hemeprotein and are expressed as means±S.E.M. a: value reported from (1.). b: value reported from (3).

HepG2 liver cell line = tested on: HepG2 liver cell line
Protocol: HepG2 were plated in multiple 96-well plates at 2×10^4 cells per well and pretreated with ethanol 100 μM for 2 hours. […] Cell viability after 24 h was determined by measuring ATP levels by luminescence assay.

ferryl myoglobin = biological target: T1, ferryl myoglobin (Homo sapiens, UniProt P02144); experiment: Reduction of ferryl myoglobin to ferric myoglobin; assay type: biochemical; conditions: compared with acetaminophen
T1 sequence (P02144 1-154): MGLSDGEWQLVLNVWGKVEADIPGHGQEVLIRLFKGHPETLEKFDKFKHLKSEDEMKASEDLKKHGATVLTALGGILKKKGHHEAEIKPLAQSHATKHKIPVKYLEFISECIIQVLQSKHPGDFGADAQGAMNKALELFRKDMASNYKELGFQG
Protocol: Ferryl myoglobin was generated by incubating ferric myoglobin 10 μM in PBS with 10 μM hydrogen peroxide until there was no more change in the peak at 421 nm. At this time, the analogs were added to the cuvette at the final concentrations indicated and spectra were recorded every 15 sec for 2 min. The initial rate of reduction was calculated as the variation of absorbance at 409 nm in the first two minutes after adding the analogs. In this period of time the rates of reduction were linear for each concentration of analog.

[2] = tested on: rat model of rhabdomyolysis; experiment: Rat model of rhabdomyolysis (myoglobin-catalyzed lipid peroxidation, renal failure); assay type: in vivo; conditions: dose giving plasma levels in the human therapeutic range
[3] = Antioxidant rate constant kinh in chemical tests, relative to α-TOH
From the text: Antioxidants, most commonly substituted phenols, effectively intercept peroxyls by transferring the phenolic H-atom to a propagating peroxyl radical, with a rate constant kinh that is faster than that of chain propagation. The most famous example of a phenolic antioxidant is vitamin E (α-toco-pherol, α-TOH) nature's hydrophobic defense against radical chain oxidation.
Compounds of the present invention have a higher kinh and serve as better antioxidants than α-TOH in chemical tests. The critical antioxidant step is shown in Equation 1, the larger the kinh, the better the antioxidant. The simple pyridinol 2a shown below is nearly 5 times better than α-TOH as an antioxidant and the bicyclic compounds 3a and 4a are over 20 times better than the vitamin. […]

myoglobin (Mb) = biological target: T2, myoglobin (Mb) (Homo sapiens, UniProt P02144); experiment: Inhibition of myoglobin-induced oxidation of arachidonic acid; assay type: biochemical; conditions: among ApAP and analogs 12-14
T2 sequence (P02144 1-154): T1 sequence (P02144 1-154)
Protocol: as §1

PGHS-2 (COX-2) = biological target: T3, PGHS-2 (COX-2) (Homo sapiens, UniProt P35354); experiment: Inhibition of hematin-reconstituted COX-2, [14C] arachidonic acid oxidation; assay type: biochemical; conditions: compared with PGHS-1
T3 sequence (P35354 18-604): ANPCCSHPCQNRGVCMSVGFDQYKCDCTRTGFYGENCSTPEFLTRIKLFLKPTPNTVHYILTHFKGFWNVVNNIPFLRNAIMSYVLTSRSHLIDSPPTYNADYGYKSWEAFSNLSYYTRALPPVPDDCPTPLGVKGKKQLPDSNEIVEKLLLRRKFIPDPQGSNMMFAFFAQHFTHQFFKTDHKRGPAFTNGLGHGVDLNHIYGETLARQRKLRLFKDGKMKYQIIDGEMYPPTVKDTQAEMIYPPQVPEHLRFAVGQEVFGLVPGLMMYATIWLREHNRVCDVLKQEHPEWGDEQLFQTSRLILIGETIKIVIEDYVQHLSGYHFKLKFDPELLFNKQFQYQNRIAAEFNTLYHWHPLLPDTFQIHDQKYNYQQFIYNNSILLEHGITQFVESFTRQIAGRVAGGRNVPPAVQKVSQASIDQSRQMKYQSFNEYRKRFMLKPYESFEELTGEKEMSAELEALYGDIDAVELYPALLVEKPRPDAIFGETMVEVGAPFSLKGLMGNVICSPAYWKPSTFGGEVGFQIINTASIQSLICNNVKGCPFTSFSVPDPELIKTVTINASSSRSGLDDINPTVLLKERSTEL
Protocol: Hematin-reconstituted COX-1 (5.4 nM) or COX-2 (10.8 nM) in Tris HCl 100 mM, pH 8.0, 500 μM phenol, was pre-incubated with N-dimethyl pyrimidinol (DM, plain line) or N-dimethyl pyridinol (DR, dashed line) at varying concentrations at 37° C. for 20 minutes. At this time the reaction was initiated by addition of 0.5 μM of [14C] arachidonic acid. After 8 seconds, the reaction was stopped by adding an ice cold mixture of diethyl ether/methanol/4.0 M citric acid. PGHS-1 activity was expressed as percent oxidation of arachidonic acid compared with control where no inhibitor was added. Each data point represents the mean±S.E.M of six values.

Chain of COX-1 (P23219 24-599, species assumed): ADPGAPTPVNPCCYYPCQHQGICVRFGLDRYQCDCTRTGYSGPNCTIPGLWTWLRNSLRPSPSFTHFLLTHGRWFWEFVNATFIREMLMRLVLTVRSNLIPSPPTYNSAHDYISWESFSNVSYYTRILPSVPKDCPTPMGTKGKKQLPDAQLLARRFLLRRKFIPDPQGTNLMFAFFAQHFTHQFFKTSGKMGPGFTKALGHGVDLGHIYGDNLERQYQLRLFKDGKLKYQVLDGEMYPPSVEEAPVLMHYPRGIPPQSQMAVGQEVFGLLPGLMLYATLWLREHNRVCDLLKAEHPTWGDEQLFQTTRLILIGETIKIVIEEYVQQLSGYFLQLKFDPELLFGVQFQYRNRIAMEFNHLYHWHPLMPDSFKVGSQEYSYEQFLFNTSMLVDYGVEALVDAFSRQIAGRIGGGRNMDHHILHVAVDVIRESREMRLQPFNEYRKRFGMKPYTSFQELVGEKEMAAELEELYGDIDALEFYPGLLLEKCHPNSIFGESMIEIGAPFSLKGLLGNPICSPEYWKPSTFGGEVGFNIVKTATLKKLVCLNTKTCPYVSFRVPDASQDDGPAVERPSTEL

- Microsomal stability % left (Microsomal stability): 87 ± 7%
- inhibition of COX-1, in words (COX-1; at concentrations up to 1 mM): not able to significantly inhibit
Structure (SMILES): Cc1nc2c(c(C)c1O)CNC(=O)N2 [Analog 13]
- EC50 at 24 h [1]: 2960 ± 284 µM

Structure (SMILES): CN(C)c1ncc(O)cn1 [DM-Pym, 2-(dimethylamino)pyrimidin-5-ol]
- cytotoxicity in ethanol-induced HepG2 model (HepG2 liver cell line): does not cause cytotoxicity
- potency in reducing ferryl myoglobin (ferryl myoglobin): remarkably more potent than acetaminophen

- Microsomal stability % left (Microsomal stability): 158 ± 33%
Structure (SMILES): O=C1NCc2cc(O)cnc2N1 [Analog 12]
- EC50 at 24 h [1]: 4760 ± 36 µM

Structure (SMILES): CC(=O)Nc1ccc(O)cc1 [ApAP, acetaminophen]
- lipid peroxidation in rhabdomyolysis model ([2]; listed as Acetaminophen): blocked lipid peroxidation
- renal failure in rhabdomyolysis model ([2]; listed as Acetaminophen): prevented the renal failure
- lipid peroxidation in rhabdomyolysis model ([2]; listed as acetaminophen): blocks
- renal failure in rhabdomyolysis model ([2]; listed as acetaminophen): blocks
- EC50 at 24 h [1]: 594 ± 147 µM

Structure (SMILES): Cc1cc(N(C)C)nc(C)c1O [Analog 2a]
- antioxidant potency, times better than α-TOH [3]: ~5 times

- Microsomal stability % left (Microsomal stability): 97 ± 3%
- rank in inhibiting myoglobin-induced arachidonic oxidation (myoglobin (Mb)): least potent
- rank in inhibiting COX-1 activity (COX-1; among ApAP and analogs 12-14): most potent
Structure (SMILES): Cc1nc2c(c(C)c1O)COC(=O)N2 [Analog 14]
- EC50 at 24 h [1]: > 5000 µM

- inhibition of PGHS-2 (COX-2), in words (PGHS-2 (COX-2)): only a weak inhibitor
Structure (SMILES): CN(C)c1ccc(O)cn1 [DM-Pyr, 6-(dimethylamino) pyridin-3-ol]
